Measurements as given in patent publication US8841413B2, “Antidiabetic compounds” (Cadila Healthcare Limited, priority 2006, dated 2014).
Read-outs that look alike come from different tables or passages of the source.

Legend:
[1] = Stability in simulated intestinal fluid; type: in vitro ADME; settings: 37° C.; for % degradation in 24 h when incubated with simulated intestinal fluid / half-life: 2 μM, pH 7.5; for half-life: simulated gi fluid, read-out: half-life (t1/2) in simulated intestinal fluid
Procedure: (§1) Reactions were terminated by the addition of TFA/H2O (15 mL, 10% (v/v)). […] The column was equilibrated with TFA/H2O, at a flow rate of 1 mL/min. […] The absorbance was monitored at 206 nm using UV detector and peaks were collected manually prior to ESI-MS analysis.

DPP IV = DPP IV (Homo sapiens, UniProt P27487); assay: Stability against DPP IV enzyme; type: in vitro ADME; settings: 2 μM, 37° C.; for half-life: read-out: half-life (t1/2) with DPP-IV enzyme
Procedure: as §1

[2] = Stability against liver microsomes; type: in vitro ADME, human; settings: for % degradation in 24 h when incubated with liver microsomes / half-life (t1/2) with liver microsomes: 2 μM, 37° C.
Procedure: as §1

[3] = system: RIN5F (Rat Insulinoma) cells; assay: In vitro glucose-dependent insulin secretion (RIN5F cell assay); type: cell-based; settings: 16.7 mM glucose load, mean ± S.D., n = 3
Procedure: After trypsinization, RIN5F cells were seeded at a concentration of 0.2×10^6·cells per well, in 12 well plates.
The supernatant was collected and the insulin amount was measured by ultra sensitive Rat insulin ELISA kit (Crystal Chem, Ill.). The protein was estimated in the supernatant using Bicinchoninic Acid kit, according to the manufacturer's protocol (Sigma Aldrich, Mo.). The total insulin content obtained in Pico-gram (pg) was divided with the total protein (μg) in order to normalize for differences in cell density between wells.

[4] = Stability in simulated gastric fluid; type: in vitro ADME; settings: 37° C., pH 1.5, pepsin; for % degradation in 24 h when incubated with simulated gastric fluid / half-life: 2 μM; for half-life: simulated gi fluid
Procedure: as §1

[5] = Stability in human plasma; type: in vitro ADME; settings: 2 μM, 37° C.; for half-life: human, plasma, read-out: half-life (t1/2) in human plasma
Procedure: as §1

Human GLP-1 receptor = target: T1, Human GLP-1 receptor (Homo sapiens, UniProt P43220); type: cell-based
T1 construct: The full-length cDNA was cloned in pcDNA3.1(+); expressed in transfected cells
How it was run: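 Stably transfected CHO cells expressing human GLP-1R, passages 9-25, exposed to compounds for 30 min at 37 °C. Lysed in ice-cold 0.1 N HCl; total cAMP by immunoassay, protein by micro BCA; expressed as percent of water vehicle control, mean±SD.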

[6] = read-out: half-life (t1/2) in simulated gastric fluid

Chain of DPP IV (P27487 whole entry, species assumed): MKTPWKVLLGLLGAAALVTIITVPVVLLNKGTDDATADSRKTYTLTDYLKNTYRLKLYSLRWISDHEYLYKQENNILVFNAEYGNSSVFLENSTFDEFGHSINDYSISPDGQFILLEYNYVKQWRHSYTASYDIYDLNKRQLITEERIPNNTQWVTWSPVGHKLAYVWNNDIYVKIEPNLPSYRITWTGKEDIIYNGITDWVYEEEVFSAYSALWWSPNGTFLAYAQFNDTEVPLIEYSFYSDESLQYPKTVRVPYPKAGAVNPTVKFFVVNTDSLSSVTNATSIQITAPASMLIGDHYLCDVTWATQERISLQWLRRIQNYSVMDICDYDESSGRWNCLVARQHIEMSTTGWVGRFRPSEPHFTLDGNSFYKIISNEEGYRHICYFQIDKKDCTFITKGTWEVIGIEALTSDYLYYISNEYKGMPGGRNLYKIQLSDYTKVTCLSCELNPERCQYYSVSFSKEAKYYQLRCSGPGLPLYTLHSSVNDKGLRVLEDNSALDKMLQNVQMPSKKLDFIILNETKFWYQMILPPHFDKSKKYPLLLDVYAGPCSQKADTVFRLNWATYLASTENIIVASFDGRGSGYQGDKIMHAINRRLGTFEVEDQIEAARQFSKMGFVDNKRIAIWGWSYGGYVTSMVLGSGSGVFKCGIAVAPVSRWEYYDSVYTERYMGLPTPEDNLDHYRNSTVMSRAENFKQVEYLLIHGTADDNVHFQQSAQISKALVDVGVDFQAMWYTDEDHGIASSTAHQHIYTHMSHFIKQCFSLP
T1 sequence (P43220 24-463): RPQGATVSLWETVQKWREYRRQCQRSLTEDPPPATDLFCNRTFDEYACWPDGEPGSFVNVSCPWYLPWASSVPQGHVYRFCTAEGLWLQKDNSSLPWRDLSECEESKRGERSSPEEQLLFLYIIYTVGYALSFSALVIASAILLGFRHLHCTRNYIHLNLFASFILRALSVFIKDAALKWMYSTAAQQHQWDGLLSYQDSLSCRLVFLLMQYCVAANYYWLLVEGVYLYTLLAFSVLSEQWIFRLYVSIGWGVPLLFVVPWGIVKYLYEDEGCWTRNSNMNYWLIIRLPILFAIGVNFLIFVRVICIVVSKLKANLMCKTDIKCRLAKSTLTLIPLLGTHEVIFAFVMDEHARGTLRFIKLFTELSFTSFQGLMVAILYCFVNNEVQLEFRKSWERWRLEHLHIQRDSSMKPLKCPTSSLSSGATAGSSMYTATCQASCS

Structure (SMILES)	% degradation in 24 h when incubated with simulated intestinal fluid [1]	% degradation in 24 h when incubated with DPP-IV enzyme (DPP IV)	% degradation in 24 h when incubated with liver microsomes [2]	% degradation in 24 h when incubated with simulated gastric fluid [4]	% degradation in 24 h when incubated with human plasma [5]	half-life [1]	half-life (DPP IV)	Human GLP-1 R activity (cAMP release), % activity with respect to control (Human GLP-1 receptor; 1 nM test compound)	Human GLP-1 R activity (cAMP release), % activity with respect to control (Human GLP-1 receptor; 10 nM test compound)	Human GLP-1 R activity (cAMP release), % activity with respect to control (Human GLP-1 receptor; 100 nM test compound)	Human GLP-1 R activity (cAMP release), % activity with respect to control (Human GLP-1 receptor; 1 μM test compound)	Human GLP-1 R activity (cAMP release), % activity with respect to control (Human GLP-1 receptor; 10 μM test compound)	half-life (t1/2) with liver microsomes [2]	half-life [4, 6]	half-life [5]	also measured
CCc1cc(OC)ccc1-c1ccc(CC(NC(=O)[C@H](CC(=O)O)NC(=O)[C@H](CO)NC(=O)[C@@H](NC(=O)[C@H](Cc2ccccc2)NC(=O)[C@@H](NC(=O)CNC(=O)[C@H](CCC(N)=O)NC(=O)[C@H](CO)NC(=O)[C@@H](N)Cc2c[nH]cn2)[C@@H](C)O)[C@@H](C)O)C(=O)NC(Cc2ccc(-c3ccccc3C)nc2)C(N)=O)cc1 (single isomer, unassigned) [compound 6]	100%	75%	100%	100%	77%	–	–	–	–	–	–	–	–	–	–	half-life at 2 μM ([1]; simulated intestinal fluid, pH 7.5, read-out: half-life (t1/2) in simulated intestinal fluid): 0.5 h; half-life at 2 μM ([2]; human, human liver microsomes, pH 7.8, 37° C., read-out: half-life (t1/2) with liver microsomes): 0.5 h; Insulin secretion ([3]; 0.1 nM test compd.): 12.4 ± 0.26 pg/µg/h; Insulin secretion ([3]; 1 nM test compd.): 15.2 ± 0.33 pg/µg/h; Insulin secretion ([3]; 10 nM test compd.): 29.6 ± 0.51 pg/µg/h; half-life at 2 μM ([4]; simulated gastric fluid with pepsin, read-out: half-life (t1/2) in simulated gastric fluid): 0.5 h; half-life (t1/2) in human plasma [5]: (9) h
CCc1cc(OC)ccc1-c1ccc(CC(NC(=O)[C@H](CC(=O)O)NC(=O)[C@H](CO)NC(=O)[C@@H](NC(=O)C(C)(Cc2ccccc2F)NC(=O)[C@@H](NC(=O)CNC(=O)[C@H](CCC(N)=O)NC(=O)C2(NC(=O)[C@@H](N)Cc3c[nH]cn3)CC2)[C@@H](C)O)[C@@H](C)O)C(=O)NC(Cc2ccc(-c3ccccc3C)cc2)C(N)=O)cc1 (single isomer, unassigned) [compound 33]	00%	00%	33%	00%	00%	> 24 h	> 24 h	99 ± 0.11%	99 ± 0.13%	99 ± 0.16%	99 ± 0.06%	99 ± 0.10%	(5) h	> 24 h	> 24 h	–
CCc1cc(OC)ccc1-c1ccc(CC(NC(=O)[C@H](CC(=O)O)NC(=O)[C@H](CO)NC(=O)[C@@H](NC(=O)C(C)(Cc2ccccc2F)NC(=O)[C@@H](NC(=O)CNC(=O)[C@H](CCC(N)=O)NC(=O)C2(NC(=O)[C@@H](N)Cc3c[nH]cn3)CC2)[C@@H](C)O)[C@@H](C)O)C(=O)NC(Cc2ccc(-c3ccccc3C)nc2)C(N)=O)cc1 (single isomer, unassigned) [compound 34]	00%	00%	32%	00%	00%	> 24 h	> 24 h	99 ± 0.12%	99 ± 0.08%	99 ± 0.11%	99 ± 0.12%	99 ± 0.16%	(5) h	> 24 h	> 24 h	–
CCc1cc(OC)ccc1-c1ccc(CC(NC(=O)[C@H](CC(=O)O)NC(=O)[C@H](CO)NC(=O)[C@@H](NC(=O)C(C)(Cc2ccccc2F)NC(=O)[C@@H](NC(=O)CNC(=O)[C@H](CCC(N)=O)NC(=O)C2(NC(=O)[C@@H](N)Cc3c[nH]cn3)CC2)[C@@H](C)O)[C@@H](C)O)C(=O)NC(Cc2ccc(-c3ccccc3F)cc2)C(N)=O)cc1 (single isomer, unassigned) [compound 35]	00%	00%	26%	00%	00%	> 24 h	> 24 h	99 ± 0.02%	99 ± 0.26%	99 ± 0.31%	99 ± 0.60%	99 ± 0.08%	(5) h	> 24 h	> 24 h	–
CCc1cc(OC)ccc1-c1ccc(CC(NC(=O)[C@H](CC(=O)O)NC(=O)[C@H](CO)NC(=O)[C@@H](NC(=O)C(C)(Cc2ccccc2F)NC(=O)[C@@H](NC(=O)CNC(=O)[C@H](CCC(N)=O)NC(=O)C2(NC(=O)[C@@H](N)Cc3c[nH]cn3)CC2)[C@@H](C)O)[C@@H](C)O)C(=O)NC(Cc2ccc(-c3ccccc3C(F)(F)F)cc2)C(N)=O)cc1 (single isomer, unassigned) [compound 36]	00%	00%	35%	00%	00%	> 24 h	> 24 h	96 ± 0.09%	99 ± 0.07%	99 ± 0.04%	99 ± 0.01%	99 ± 0.08%	(5) h	> 24 h	> 24 h	–
